Assay [1] has as its system NIH3T3 cells. The experiment in a line: Wound-healing assay. It counts as cell-based. The note with it: for effect on GroPIns4P-stimulated wound closure: 50 μM GroPIns4P. The method, then:
To perform the wound-healing assay, NIH3T3 cells were seeded in 6-well tissue culture plates to a final density of 3 × 10^5 cells/well and maintained at 37 °C and 5% CO2 for 24 h until confluence before being starved overnight in DMEM containing 1% bovine serum. The cell monolayer was wounded by scratching with a 10 μL standard sterile pipette tip. The scratched monolayer was rinsed twice with DMEM containing 1% bovine serum to remove cell debris and incubated with or without 50 μM GroPIns4P. […] In detail, the input image was processed by applying a Sobel edge detector [26], obtaining a gradient image. A threshold process was then performed on the gradient image to obtain the foreground corresponding to the wound area. Particularly, all of the pixels of the gradient image with values less than the threshold θ were assumed to be pixels of the foreground (experimentally, θ is set to 4). Finally, procedures based on morphological operations were used to remove small regions and to fill holes of the wound area to complete detection and analysis.

The subject of assay [2] is NIH3T3 cells. The experiment in a line: Immunofluorescence analysis for membrane ruffling. It counts as cell-based. The note with it: for effect of pre-treatment on peripheral ruffles in response to GroPIns4P: with 50 μM GroPIns4P for 5 min. On the procedure:
NIH3T3 and Raw 264.7 cells were cultured in DMEM supplemented with 2 mM L-glutamine, 50 U/mL penicillin, […] streptomycin, and 10% CS or heat-inactivated FBS (30 min at 55 °C), respectively. NIH3T3 cells were transfected with different plasmids using the Lipofectamine LTX/plus reagent according to the manufacturer’s instructions. For immunofluorescence experiments, NIH3T3 cells were seeded onto glass coverslips in 24-well plates at a concentration suitable for 70% confluence without transfection or 50% confluence in the case of Lipofectamine-based cell transfection. In the latter, approximately 24 h after seeding, NIH3T3 cells were transiently transfected with different plasmids with the Lipofectamine LTX/plus reagent following the manufacturer’s instructions. Before treatments, NIH3T3 cells were serum-starved in DMEM with 2 mM glutamine, 50 U/mL penicillin and streptomycin for 16–20 h. The cells were then treated with different stimuli and/or inhibitors, as indicated in the text and/or Figure legends. Addition of exogenous GroPIns4P was at 50 μM (unless otherwise indicated), a concentration eliciting an intracellular concentration of about 1.5 μM, as calculated from the Nernst equation (with T = 300 K, z = − 3, and Veq = − 30 mV, an average value for cultured, non-excitable cells).
For ruffle assessment after treatments, immunofluorescence labelling and morphological analysis of the cells were performed as previously described in a double-blind fashion. In brief, the assessment was based on a null score (zero) for the absence of the feature, followed by a score of one or two according to the level of response of each individual cell, where one indicate that ruffling was confined to one area of the cell (< 25% of the cell circumference), and two indicate that two or more discrete areas of the cell contained ruffles. The cell phenotypes were quantified by counting 150 cells in each sample. The data were then expressed as percentage scores (±SD) for each treatment response compared with its respective control. Scoring of the control cells was performed in the same way to evaluate the presence of the features of interest in untreated cells.

A further assay addresses T1, Shp1 (Homo sapiens, UniProt P29350).
T1 construct: the C-terminal truncated form of human Shp1 cDNA (His-Shp1; amino acids 1–529); made in house; host or cells: E. coli BL21(DE3)
T1 sequence (P29350 1-529 isoform P29350-3): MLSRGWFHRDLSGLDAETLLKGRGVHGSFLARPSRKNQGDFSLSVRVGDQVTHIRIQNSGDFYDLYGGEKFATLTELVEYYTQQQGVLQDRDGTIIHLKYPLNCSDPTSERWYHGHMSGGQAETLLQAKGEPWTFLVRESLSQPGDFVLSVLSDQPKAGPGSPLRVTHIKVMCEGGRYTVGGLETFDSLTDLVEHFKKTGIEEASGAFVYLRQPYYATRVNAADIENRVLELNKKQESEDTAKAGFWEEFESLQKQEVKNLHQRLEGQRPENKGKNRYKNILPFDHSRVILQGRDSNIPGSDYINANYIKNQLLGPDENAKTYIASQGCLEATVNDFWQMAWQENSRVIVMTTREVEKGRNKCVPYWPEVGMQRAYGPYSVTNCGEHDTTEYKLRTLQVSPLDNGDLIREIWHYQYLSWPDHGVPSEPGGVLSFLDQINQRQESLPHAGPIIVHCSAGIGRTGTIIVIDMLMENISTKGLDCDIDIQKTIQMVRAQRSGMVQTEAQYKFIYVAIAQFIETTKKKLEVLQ
The experiment in a line: Isothermal titration calorimetry, Shp1 WT. The note with it: Ins4P 50 µM (Fig. S2). It counts as binding. The method, then:
ITC measurements were performed by using a Nano-ITC III (TA instruments, New Castle, DE, USA) with a reaction cell volume of 1 ml kept at 25 °C. A protein solution of 10 μM was titrated into the calorimetric cell with a solution of 50–100 μM of the ligand GroPIns4P (Ins4P) in the syringe. A sequence of 16 injections of 15 μL volume was programmed with a stirring speed of 250 rpm at 500 s intervals. Protein samples were prepared with protein solutions at 25 °C in 20 mM Tris buffer pH 7.4 with 50 mM NaCl and 1 mM TCEP. To minimise the differences in buffer composition and pH between cell and syringe, both ligand and protein solutions were prepared with the same batch of buffer. The heat of dilution of the GroPIns4P into the buffer solution was measured in a separate experiment and appropriate corrections were made. The heat evolved after each ligand injection was obtained from the integral of the calorimetric signal. Raw data were integrated, corrected for non-specific heats and normalized for concentration. The equilibrium dissociation constant (KD), binding enthalpy (ΔbH) and binding stoichiometry (n) were obtained by nonlinear regression of the experimental data using a model of independent binding sites, by means of the NanoAnalyze software. Experiments were performed in duplicate.
Background: In ITC the heat of successive injections is recorded.

The test system of a further assay is actin cytoskeleton. On the set-up: method as in PMID 12589050. The note with it: cited from earlier work.

These results are taken from paper PMC6396489 (Cell Communication and Signaling : CCS, 2019).

“Also recorded” adds a separate entry of the source.

For `O=S(=O)(O)c1ccc2cc(N=Nc3cc(S(=O)(=O)O)c4cccnc4c3O)ccc2c1` [NSC-87877], the “reduction of EGF-induced cell migration” value in the assay with NIH3T3 cells [1] (100 μM, EGF 10 ng/ml) is recorded as about 100%. For the same molecule, the “effect on GroPIns4P-stimulated wound closure” value in the assay on NIH3T3 cells [1] (pre-treatment 100 μM) was “completely abrogated”. The “effect of pre-treatment on peripheral ruffles in response to GroPIns4P” value in the assay with NIH3T3 cells [2] was “strongly impair”.
As to EGF: Epidermal growth factor, the cell migration result with NIH3T3 cells [1] (10 ng/ml EGF) is listed as “significant increase”.
As for `CCCCC/C=C\C/C=C\C/C=C\C/C=C\CCCC(=O)O` [arachidonic acid], in the assay with NIH3T3 cells [1] (10–50 μM), the “effect on EGF-induced cell motility” value is given as “did not affect”. Further, the “effect when combined with the PLA2 inhibitor in EGF-stimulated cells” value with NIH3T3 cells [1] (EGF 10 ng/ml, cPLA2α inhibitor, arachidonic acid) is on record as “minor inhibitory effect”.
As to PDGF, in the assay with NIH3T3 cells [2] (10 ng/ml PDGF), the “effect of Shp1-C455S overexpression on PDGF-induced ruffles” value is reported as “not affected”. For the same molecule, the “increase in ruffles versus the control” value in the assay with NIH3T3 cells [2] (10 ng/ml PDGF for 5 min, positive control) was 3.5–4 fold.
In the case of `O=C1C=CC(=O)C(c2cc(Cl)ccc2Cl)=C1` [TPI-1], the “reduction of EGF-induced cell migration” value with NIH3T3 cells [1] (25 μM, EGF 10 ng/ml) was 50%. In addition, in the assay with NIH3T3 cells [1] (pre-treatment 25 μM), the “effect on GroPIns4P-stimulated wound closure” value was “completely abrogated”. The “effect of pre-treatment on peripheral ruffles in response to GroPIns4P” value in the assay with NIH3T3 cells [2] is reported as “strongly impair”.
Turning to `O=P(O)(O)OC1[C@@H](O)[C@@H](O)C(O)[C@H](O)[C@H]1O` (stereo partly shown) [Ins4P, Inositol 4-phosphate, reference compound], the “binding to Shp1 by ITC” value at Shp1 is reported as “did not indicate any specific binding; also recorded: no binding was resolved”. For the same molecule, in the assay on actin cytoskeleton, the “effect on actin cytoskeleton organisation” value is given as “no effect”.
